The target of assay [1] is GABA-A receptor; anion channel (Homo sapiens) (UniProt P14867+P47870+P18507+P28472+P48169+Q99928+Q9UN88+P34903+O00591+O14764+Q8N1C3+P18505+P78334+P47869+P31644+Q16445). Nature of the assay: Inhibition of mammalian Gamma-aminobutyric acid A (GABA-A) receptor (inactive). The class given is protein-complex assay.
Assay [2] has as its target T1, GABA-C receptor (Homo sapiens) (UniProt P28476+A8MPY1+P24046). The experiment in a line: Inhibition of mammalian Gamma-aminobutyric acid type C (GABA-C) receptor, potent antagonist. The class given is functional.
The target in assay [3] is T1, GABA-C receptor (Homo sapiens). Nature of the assay: Inhibition of mammalian Gamma-aminobutyric acid type C (GABA-C) receptor, partial agonist. The class given is functional.
Assay [4] deals with GABA-B receptor (Homo sapiens) (UniProt Q9UBS5+O75899). Nature of the assay: Inhibition of mammalian Gamma-aminobutyric acid type B receptor (Inactive). The class given is protein-complex assay.
In assay [5] the target is GABA-A receptor; anion channel. The experiment in a line: Inhibition of mammalian Gamma-aminobutyric acid A (GABA-A) receptor, agonist. The class given is functional.
Assay [6] is described as follows: Inhibition of rat brain Gamma-aminobutyric acid A (GABA-A) receptor expressed in oocytes, weak antagonist. The class given is functional. Particulars: Oocyte.
In assay [7] the target is T1, GABA-C receptor (Homo sapiens). The experiment in a line: Inhibition of human Gamma-aminobutyric acid type C (GABA-C) receptor, potent antagonist. The class given is functional.
The target in the next assay is GABA B receptor (Rattus norvegicus, UniProt O88871+Q9Z0U4). Nature of the assay: Inhibition of rat hippocampal Gamma-aminobutyric acid type B receptor (weak agonist). The class given is functional, tissue-based, Hippocampus.
Sequence of GABA B receptor (Q9Z0U4 whole entry): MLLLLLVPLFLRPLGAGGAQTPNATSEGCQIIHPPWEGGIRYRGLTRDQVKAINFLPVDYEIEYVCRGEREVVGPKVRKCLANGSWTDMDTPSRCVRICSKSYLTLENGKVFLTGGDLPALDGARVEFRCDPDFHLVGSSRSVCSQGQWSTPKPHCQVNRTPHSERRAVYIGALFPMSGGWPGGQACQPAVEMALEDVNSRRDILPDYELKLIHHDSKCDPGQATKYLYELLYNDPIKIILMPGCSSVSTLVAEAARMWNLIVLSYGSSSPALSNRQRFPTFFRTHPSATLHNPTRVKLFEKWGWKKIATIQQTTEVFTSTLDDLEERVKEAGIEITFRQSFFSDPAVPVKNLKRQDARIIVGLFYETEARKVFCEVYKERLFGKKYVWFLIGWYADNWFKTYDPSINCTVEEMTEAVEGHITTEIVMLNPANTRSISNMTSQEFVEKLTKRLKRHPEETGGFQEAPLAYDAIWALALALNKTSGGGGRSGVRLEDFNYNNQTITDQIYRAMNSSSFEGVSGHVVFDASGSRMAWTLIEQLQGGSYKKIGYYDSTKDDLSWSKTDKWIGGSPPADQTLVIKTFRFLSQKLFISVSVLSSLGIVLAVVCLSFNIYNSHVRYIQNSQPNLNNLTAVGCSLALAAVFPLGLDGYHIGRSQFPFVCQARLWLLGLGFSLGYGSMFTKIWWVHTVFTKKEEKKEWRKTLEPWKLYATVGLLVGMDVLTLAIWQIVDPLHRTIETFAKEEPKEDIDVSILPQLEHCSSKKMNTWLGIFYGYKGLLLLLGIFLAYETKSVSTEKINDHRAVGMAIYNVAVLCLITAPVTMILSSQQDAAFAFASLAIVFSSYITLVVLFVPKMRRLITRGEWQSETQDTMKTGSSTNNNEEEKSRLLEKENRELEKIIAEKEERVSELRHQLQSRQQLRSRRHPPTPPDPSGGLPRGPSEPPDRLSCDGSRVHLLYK
Sequence of GABA B receptor (O88871 whole entry): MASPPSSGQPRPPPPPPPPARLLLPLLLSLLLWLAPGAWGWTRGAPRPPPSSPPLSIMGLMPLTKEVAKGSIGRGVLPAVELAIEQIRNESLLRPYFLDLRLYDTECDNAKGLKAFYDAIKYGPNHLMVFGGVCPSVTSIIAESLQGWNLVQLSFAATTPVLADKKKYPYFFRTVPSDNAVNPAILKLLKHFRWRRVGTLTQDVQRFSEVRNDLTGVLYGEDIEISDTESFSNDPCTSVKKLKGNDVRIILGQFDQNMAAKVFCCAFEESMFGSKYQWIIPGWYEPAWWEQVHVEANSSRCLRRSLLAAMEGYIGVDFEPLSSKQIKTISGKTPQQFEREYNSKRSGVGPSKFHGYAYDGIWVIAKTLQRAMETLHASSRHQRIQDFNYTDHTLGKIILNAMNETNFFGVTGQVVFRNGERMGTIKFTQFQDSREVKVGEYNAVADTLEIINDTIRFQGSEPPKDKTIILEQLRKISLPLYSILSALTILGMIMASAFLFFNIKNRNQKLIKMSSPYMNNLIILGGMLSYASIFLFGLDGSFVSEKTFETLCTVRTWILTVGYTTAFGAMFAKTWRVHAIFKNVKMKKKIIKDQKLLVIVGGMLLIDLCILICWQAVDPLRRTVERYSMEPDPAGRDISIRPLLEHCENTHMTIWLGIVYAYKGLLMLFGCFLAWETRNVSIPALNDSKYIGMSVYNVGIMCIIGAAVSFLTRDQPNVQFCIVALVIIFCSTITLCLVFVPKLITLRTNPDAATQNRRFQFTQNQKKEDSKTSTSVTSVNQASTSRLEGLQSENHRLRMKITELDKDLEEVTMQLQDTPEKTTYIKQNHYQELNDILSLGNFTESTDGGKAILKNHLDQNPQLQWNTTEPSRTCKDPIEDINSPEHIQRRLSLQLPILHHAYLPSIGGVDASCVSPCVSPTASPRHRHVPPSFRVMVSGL

Active and inactive are the calls of the source. No cut-off for these calls is given here.

T1 sequence (A8MPY1 whole entry, looked up): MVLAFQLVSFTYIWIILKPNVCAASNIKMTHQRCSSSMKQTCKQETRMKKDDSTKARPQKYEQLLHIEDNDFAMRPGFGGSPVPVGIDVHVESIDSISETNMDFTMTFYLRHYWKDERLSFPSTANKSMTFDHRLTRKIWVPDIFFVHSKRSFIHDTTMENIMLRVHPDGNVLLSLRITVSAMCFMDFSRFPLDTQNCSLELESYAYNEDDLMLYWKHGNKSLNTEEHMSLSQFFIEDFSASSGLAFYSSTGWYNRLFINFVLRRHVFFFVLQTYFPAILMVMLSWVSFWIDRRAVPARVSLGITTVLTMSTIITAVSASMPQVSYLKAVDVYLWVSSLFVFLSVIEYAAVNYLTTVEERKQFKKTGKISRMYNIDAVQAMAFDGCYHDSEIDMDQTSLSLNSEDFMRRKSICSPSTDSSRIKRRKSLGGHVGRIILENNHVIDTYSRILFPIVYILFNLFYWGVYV
T1 sequence (P24046 whole entry, looked up): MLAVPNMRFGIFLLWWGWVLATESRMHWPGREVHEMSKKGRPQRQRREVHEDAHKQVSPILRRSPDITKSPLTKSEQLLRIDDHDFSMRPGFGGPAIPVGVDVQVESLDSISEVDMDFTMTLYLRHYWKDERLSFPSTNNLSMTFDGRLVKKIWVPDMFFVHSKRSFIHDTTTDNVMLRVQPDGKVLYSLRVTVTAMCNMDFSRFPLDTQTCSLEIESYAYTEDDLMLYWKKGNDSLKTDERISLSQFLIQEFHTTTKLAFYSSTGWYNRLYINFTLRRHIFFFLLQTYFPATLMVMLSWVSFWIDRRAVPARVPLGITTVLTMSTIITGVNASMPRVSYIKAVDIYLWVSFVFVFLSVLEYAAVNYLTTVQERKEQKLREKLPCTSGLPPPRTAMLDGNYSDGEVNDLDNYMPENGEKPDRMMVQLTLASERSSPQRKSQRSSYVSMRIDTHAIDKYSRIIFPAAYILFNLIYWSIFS
T1 sequence (P28476 whole entry, looked up): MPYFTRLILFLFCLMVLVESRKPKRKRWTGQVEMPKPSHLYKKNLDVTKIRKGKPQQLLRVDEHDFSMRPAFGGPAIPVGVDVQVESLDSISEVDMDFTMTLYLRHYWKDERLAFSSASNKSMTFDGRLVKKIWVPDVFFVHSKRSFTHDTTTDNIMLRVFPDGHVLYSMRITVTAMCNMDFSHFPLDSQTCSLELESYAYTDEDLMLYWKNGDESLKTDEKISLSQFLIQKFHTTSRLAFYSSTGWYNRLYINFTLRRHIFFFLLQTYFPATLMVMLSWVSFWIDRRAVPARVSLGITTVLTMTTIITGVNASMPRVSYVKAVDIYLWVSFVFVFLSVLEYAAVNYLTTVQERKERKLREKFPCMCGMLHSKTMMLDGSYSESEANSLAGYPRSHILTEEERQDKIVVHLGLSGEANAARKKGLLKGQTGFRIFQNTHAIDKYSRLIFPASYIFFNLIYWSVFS

For `CP(=O)(O)CCCN`, the outcome in assay [1] was inactive. Also, in assay [2], the Kb worked out at 0.8 µM.

Compound `O=C(O)C1=CCNCC1` [ISOGUVACINE] showed a Kb in assay [3] of 99 µM. Moreover, the outcome in assay [4] was inactive. Further, in assay [5], the response was half-maximal at 310 µM (EC50).

Take `CP(=O)(O)C1=CCNCC1`: the Kb came out at 320 µM in assay [6] and 2.1 µM in assay [7]. Moreover, on GABA B receptor, the concentration giving a half-maximal response (EC50) stood at 500 µM.

The record behind these values is ChEMBL document CHEMBL1150031, “The first selective antagonist for a GABAC receptor” (Bioorg Med Chem Lett, 1996).
